In patent US4122274A, “3-Tetrazolo-5,6,7,8-substituted-pyrido[1,2-a]pyrimidin-4-ones” (priority 1977, dated 1978):
Like-named read-outs stand apart in the source and are kept apart here.

How the values were obtained:
[1] = test system: rat Passive Cutaneous Anaphylaxis (PCA) response; assay: reagin-mediated rat Passive Cutaneous Anaphylaxis (PCA) screening test; format: in vivo, rat (Sprague-Dawley)
Description: The reagin-mediated rat Passive Cutaneous Anaphylaxis (PCA) screening test used to evaluate the present compounds is generally regarded as one of the best animal models for use in predicting the antiallergy activity of test compounds in man. Briefly, the method consists of passive sensitization of skin sites on the test animals with reaginic antibodies followed after 24 hours by administration of the test drug and antigen challenge. The allergic response is measured by use of Evans' blue dye and is evaluated by the spot diameter at the injection site. Details of the test are provided below.
A substituted ovalbumin antigen is used both as immunogen and challenging antigen. The antigen is prepared as follows: 500 mg. ovalbumin (EA) and 500 mg. K2 CO3 are dissolved in 25 ml. distilled H2 O and stirred at room temperature for 5 minutes. Five hundred (500) mg. dinitrobenzene sulfonic acid, Na^+ salt, (previously recrystallized from hot absolute ethanol) is then added slowly with continued stirring. The reaction mixture is then immediately placed in the dark and allowed to proceed for 2 hours with constant stirring. After 2 hours the mixture is placed in suitable dialysis tubing and dialyzed against 5 changes (4 liters each) of distilled H2 O at 5° C. After dialysis the product is lyophilized and stored at room temperature in a brown or amber container. The antigen obtained will appear as a light yellow, amorphous solid which is very soluble in water or saline. It is designated as DNP denatured ovalbumin (DNP-d EA).
Adult, male Sprague-Dawley rats are used as a source of reagin-rich antisera for the PCA model. Immunization is by a combination of DNP-d EA on Al(OH)3 gel and B. pertussis vaccine. Preparation of the DNP-d EA-gel immunogen is as follows: Dissolve the DNP-d EA in TBS so as to give a concentration of 10 mg./ml. Slowly add 1 ml. of this solution to 10 ml. Al(OH)3 gel (10 mg. solids/ml.) with constant stirring at room temperature. Stir the mixture an additional 30 minutes to insure a uniform adsorption of antigen on gel.
The resulting preparation is then used in combination with phase I B. pertussis vaccine to immunize male S/D rats as follows: For each rat administer 0.1 ml. DNP-d EA-gel suspension intramuscularly in each hind leg (200 μg DNP-d EA and 2 mg. gel total dose). Follow these injections by the intraperitoneal administration of 1.0 ml. B. pertussis vaccine (10-20 × 10^9 organisms). The use of light ether anesthesia during this procedure is recommended to insure proper intramuscular and intraperitoneal injections. Nine days following immunization (but no longer than 10) the animals are exsanguinated by cardiac puncture or abdominal aorta cannulation under ether or pentobarbital anesthesia. The collected whole blood is allowed to clot, the serum separated by centrifugation and the individual serum samples stored frozen until assayed for IgE content.
Individual serum samples should be screened for reaginic antibody concentration before being pooled with other sera, as not all rats respond to immunization procedures with reagin production. A 1:50 saline dilution of serum from each immunized rat is used for this purpose. Intradermal injections of 0.05 ml. of the diluted sera are made in the shaven backs of two small female recipient rats, 100-120 gms. Several serum samples can be tested simultaneously in recipient animals. After a 24 to 48 hour latent period antigen challenge is accomplished by intravenous administration to each rat of 1 mg. DNP-d EA in 0.5 ml. of 0.5% Evans' blue dye in saline. Sera which show positive PCA reactions at the 1:50 dilution, as measured 20 to 30 minutes post-challenge are pooled, dispensed in small aliquots and stored at -70° C. or lower until used. Negative sera may be discarded.
The IgE titer of the antisera pool should then be determined. […]

[2] = treatment of bronchial asthma; cited from earlier work
[3] = test system: release of mediators, e.g. histamine and SRS-A; details: administered to asthmatic patients prior to inhalation of specific antigens; cited from earlier work
[4] = must be administered by inhalation; cited from earlier work
[5] = po, 10 min prior to antigen challenge, read-out: ID50 (dose of compound that inhibits 50% of the response), p.o.
[6] = iv, test compounds given 1-5 min prior to antigen challenge, DSCG at time of challenge, read-out: ID50 (dose of compound that inhibits 50% of the response), i.v.

| SMILES | ED50 [1, 5] [mg/kg] | other results |
| --- | --- | --- |
| Cc1cc(C)c2ncc(-c3nnn[nH]3)c(=O)n2c1 [Example 11, 7,9-Dimethyl-3-(1H-tetrazol-5-yl)-4H-pyrido[1,2-a]pyrimidin-4-one] | 0.014 | – |
| CCCCc1ccc2ncc(-c3nnn[nH]3)c(=O)n2c1 [Example 7, 7-n-Butyl-3-(1H-tetrazol-5-yl)-4H-pyrido[1,2-a]pyrimidin-4-one] | ~0.1 | – |
| CCc1ccc2ncc(-c3nnn[nH]3)c(=O)n2c1 [Example 6, 7-Ethyl-3-(1H-tetrazol-5-yl)-4H-pyrido[1,2-a]pyrimidin-4-one] | 0.04 | – |
| Cc1ccc2ncc(-c3nnn[nH]3)c(=O)n2c1 [Example 4, 7-Methyl-3-(1H-tetrazol-5-yl)-4H-pyrido[1,2-a]pyrimidin-4-one] | ~0.1 | – |
| Cc1ccn2c(=O)c(-c3nnn[nH]3)cnc2c1 [Example 5, 8-Methyl-3-(1H-tetrazol-5-yl)-4H-pyrido[1,2-a]pyrimidin-4-one] | 2.4 | – |
| CCc1cccn2c(=O)c(-c3nnn[nH]3)cnc12 [Example 12, 9-Ethyl-3-(1H-tetrazol-5-yl)-4H-pyrido[1,2-a]pyrimidin-4-one] | ~0.0033 | – |
| Cc1cccn2c(=O)c(-c3nnn[nH]3)cnc12 [Example 10, 9-Methyl-3-(1H-tetrazol-5-yl)-4H-pyrido[1,2-a]pyrimidin-4-one] | 0.0066 | – |
| CC(C)NCC(O)c1ccc(O)c(O)c1 (stereo not drawn) [isoproterenol] | – | side effects [2]: cardiac stimulation and gastrointestinal distress |
| O=C(O)c1cc(=O)c2c(OCC(O)COc3cccc4oc(C(=O)O)cc(=O)c34)cccc2o1 [DSCG, Disodium cromoglycate, reference compound] | > 30 | inhibition of release of mediators, e.g. histamine and SRS-A [3]: inhibits the release of mediators; ED50 [1, 6]: ~0.6 mg/kg; oral absorption [4]: not orally absorbed |
| O=c1c(-c2nnn[nH]2)cnc2ccc(Cl)cn12 [Example 9, 7-Chloro-3-(1H-tetrazol-5-yl)-4H-pyrido[1,2-a]pyrimidin-4-one] | ~0.07 | – |
| CNC[C@H](O)c1ccc(O)c(O)c1 [epinephrine] | – | side effects [2]: cardiac stimulation and gastrointestinal distress |
| CN1[C@@H]2CC[C@H]1C[C@@H](OC(=O)C(CO)c1ccccc1)C2 (stereo partly drawn) [atropine] | – | side effects [2]: cardiac stimulation and gastrointestinal distress |
| O=c1c(-c2nnn[nH]2)cnc2ccc(-c3ccccc3)cn12 [Example 8, 7-Phenyl-3-(1H-tetrazol-5-yl)-4H-pyrido[1,2-a]pyrimidin-4-one] | 0.05 | – |
| O=c1c(-c2nnn[nH]2)cnc2ccccn12 [Example 1, 3-(1H-Tetrazol-5-yl)-4H-pyrido[1,2-a]pyrimidin-4-one] | ~0.1 | ED50 [1, 6]: 0.06 mg/kg |
